Measurements reported in patent US7148193B2, “Compounds that bind to growth hormone receptor” (Antyra, Inc., priority 1997, dated 2006).
Where a SMILES comes first, the peptide text is derived from it. Bridges are numbered along the chain shown (N, C = ends).

Assays:
rGHBP [1] = molecular target: T1, rGHBP (Rattus norvegicus, UniProt P16310); assay: BIAcore affinity measurements of bPeptide binding to rGHBP; details: BIAcore appKD and phage competition
T1 construct: 1–48 of GHBP; The 3′ oligo used for this reaction encoded the mutation L43R (CTG→AGA); The second PCR reaction amplified the DNA encoding amino acids 38–260; 6xHis; made in house
T1 sequence (P16310 19-278 isoform P16310-2): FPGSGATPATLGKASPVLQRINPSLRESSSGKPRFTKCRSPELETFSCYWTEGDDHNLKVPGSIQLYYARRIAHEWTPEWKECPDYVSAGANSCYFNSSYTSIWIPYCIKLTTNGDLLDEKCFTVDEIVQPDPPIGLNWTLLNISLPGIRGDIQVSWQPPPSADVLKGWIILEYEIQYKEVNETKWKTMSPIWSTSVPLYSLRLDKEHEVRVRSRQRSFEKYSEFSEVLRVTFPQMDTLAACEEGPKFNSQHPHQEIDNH
Procedure: GHBP was immobilized onto one flow-cell of a CM-5 sensor chip (Biosensor) using amine coupling chemistry and the manufacturer's recommended protocol. An unrelated IgG was immobilized in the same manner to another flow cell of the same chip as a control surface. Increasing concentrations of synthetic peptide were injected over both surfaces, and the binding responses were allowed to come to equilibrium. After subtraction of background binding from the control surface, the results were used to derive an equilibrium dissociation constant using Scatchard analysis.
The rat GHBP (100 μg/ml) was immobilized onto a CM-5 sensor chip using amino coupling chemistry and the manufacturer's recommended protocol. The final surface density was 4000 RU. A monoclonal antibody was immobilized onto another flow cell as a control surface. Peptides (50 μg/ml) were injected at a flow rate of 5 μl/min. Background binding to the control surface was subtracted prior to further analysis.

rGHBP [2] = molecular target: T1, rGHBP; assay: Time-resolved fluorometric detection (TRFD) of specific bLigand binding to rGHBP and its competition; details: TRFD
Procedure: For this invention, saEu forms a ternary complex with bP and rGHBP (i.e., the rGHBP:bP:saEu complex). As described herein, the TRFD assay is performed using biotinylated GH (bGH) as bLigand. Biotinylated H5-mutant peptides bP#447 (SEQ ID NO:11) and bP#418 (SEQ ID NO:12) are also used as bLigand (see below). The TRFD assay described herein faithfully reports the competition of ligand binding to the active site of rGHR. To perform the TRFD assays, soluble rGHBP is attached to the surface of microtiter wells, then incubated with bP. Unbound bP is than washed away and (sa)Eu is added to complex with receptor bound bP. The rGHBP:bP bound (sa)Eu is then converted into its highly fluorescent state and detected by TRFD.
Wells were coated with rGHBP(100 ng/well) overnight as described. ED50 and IC50 were calculated from analysis of specific bLigand binding to rGHBP. Competitors were added 1 hr prior to addition of bLigand as described.
rGHBP (50–200 μg/ml in 50 mM NaHCO3) was coated onto low-fluorescence MaxiSorp (Nunc) plates (100 μl/well) overnight at 4° C. The plates were blocked with PBS containing 2% non-fat milk and 0.05% BSA for 2 hr at room temperature, followed by three PBS washes. For competitions, serial dilutions of unlabelled growth hormone (0.1 nM-100 nM) or MAb 2C3 (0.67–67 nM) were added to the plates (100 μl/well) and incubated at room temperature for 1–2 hr. Biotinylated peptide or biotinylated GH (10× concentrations) were incubated in blocking buffer for 30 min to decrease non-specific binding. Ten microliters of the 10× concentrated material was added to the plates and incubated at room temperature for 1 hr to overnight.
The plates were then washed five times with Tris-buffered saline (pH 7.5) containing 0.1% Tween-20 (TTBS). To each well, 100 μl of europium-labeled streptavidin in DELFIA assay buffer (100 mM Tris-HCl, pH 7.8; 150 mM NaCl; 0.5% BSA; 0.05% bovine Ig; 0.05% NaN3; 0.01% Tween-20) was added and incubated for 1.5 hr at room temperature. The plates were then washed five times with TTBS and tapped dry. Subsequently, 100 μl of DELFIA enhancement solution (100 mM acetone-potassium hydrogen phthalate, pH 3.2; 15 mM 2-naphtyltrifluoroacetate; […] tri(n-octyl)-phosphine oxide; 0.1% Triton X-100) was added to each well, and the plates were shaken for 10 min at room temperature. Fluorescence of each sample well was measured at 615 nm using a DELFIA 1234 fluorometer (EG&G Wallac). General procedure and references as described by Wallac are available in “Lanthanide labeling for time-resolved fluorometry”: Wallac publication 1244–1126-03.

| affinity for rGHBP, ranking (rGHBP [1]) | binding better than H5WT or bP#445 (rGHBP [2]) [times] | Structure (SMILES) |
| --- | --- | --- |
| highest affinity | 10 | CC(C)C[C@@H]1NC(=O)[C@H](CCCNC(=N)N)NC(=O)[C@H](CCC(N)=O)NC(=O)[C@@H](NC(=O)[C@H](CC(C)C)NC(=O)[C@H](CC(=O)O)NC(=O)[C@H](CCCCN)NC(=O)[C@H](Cc2ccc(O)cc2)NC(=O)[C@@H](N)CC(=O)O)CSSC[C@@H](C(=O)N[C@@H](C)C(=O)N[C@@H](CCCCN)C(=O)N[C@@H](CCCCN)C(=O)O)NC(=O)[C@H](Cc2c[nH]c3ccccc23)NC(=O)CNC(=O)[C@H](CO)NC(=O)[C@H](CC(C)C)NC(=O)[C@H](Cc2c[nH]c3ccccc23)NC(=O)CNC(=O)[C@@H]2CCCN2C(=O)[C@H](Cc2c[nH]c3ccccc23)NC(=O)CNC(=O)[C@H](C(C)C)NC(=O)CNC1=O [#447] |
| highest affinity | 10 | CC(C)C[C@@H]1NC(=O)[C@H](Cc2c[nH]c3ccccc23)NC(=O)CNC(=O)[C@@H]2CCCN2C(=O)[C@H](Cc2c[nH]c3ccccc23)NC(=O)[C@H]([C@@H](C)O)NC(=O)[C@H](C(C)C)NC(=O)[C@H](CCC(N)=O)NC(=O)[C@H](Cc2c[nH]c3ccccc23)NC(=O)[C@H](CO)NC(=O)[C@H](CCC(N)=O)NC(=O)[C@@H](NC(=O)[C@H](CC(C)C)NC(=O)[C@H](CC(=O)O)NC(=O)[C@H](CCCCN)NC(=O)[C@H](Cc2ccc(O)cc2)NC(=O)[C@@H](N)CC(=O)O)CSSC[C@@H](C(=O)N[C@@H](C)C(=O)N[C@@H](CCCCN)C(=O)N[C@@H](CCCCN)C(=O)O)NC(=O)[C@H](Cc2c[nH]c3ccccc23)NC(=O)CNC(=O)[C@H](C)NC1=O [#418] (H-DYKDLCQSWQVTWPGWLAGWCAKK-OH; disulfide 6-21; N-terminus and C-terminus assumed) |
